Measured values as given in patent publication US7709526B2, “Use of cyclolignans and new cyclolignans” (Biovitrum AB, priority 2001, dated 2010).

Assays:
[1] = system: MCF-7 breast cancer cells; experiment: Cell viability (XTT), MCF-7; type: cell-based, human; conditions: Homo sapiens, MCF7, 48 h
Method: (§1) Cell proliferation kit II (Roche Inc.) is based on calorimetric change of the yellow tetrazolium salt XTT in orange formazan dye by the respiratory chain of viable cells (Roehm, N W, et al., J Immunol Methods 142:257-265, 1991). Cells seeded at a concentration of 5000/well in 100 μl medium in a 96-well plate were treated with different drugs in the given concentration. After 24 or 48 h the cells were incubated, according to the manufacturer's protocol, with XTT labelling mixture. After 4 h the formazan dye is quantified using a scanning multiwell spectrophotometer with a 495-nm filter. The absorbance is directly correlated with number of viable cells. The standard absorbance curve was drawn by means of untreated cells seeded at a concentration of from 1000 to 10 000 cells/well with an increasing rate of 1000 cells/well. All standards and experiments were performed in triplicates.
(§2) 5 different types of cell lines were seeded in 96-well plates (medium volume in a well was 100 μl), at a concentration of 10,000 cells/cm^2 in Minimal Essential Medium supplemented with fetal calf serum. When the cells had reached a concentration of 65,000 cells/cm^2, they were treated with different doses of podophyllotoxin and deoxypodophyllotoxin for 48 h. Cell viability was then assayed (see above). […]

[2] = molecular target: IGF-1R (Homo sapiens, UniProt P08069); experiment: IGF-1R phosphorylation/autophosphorylation in intact FM55 melanoma cells (immunoprecipitation, Western blotting, OD); type: cell-based; set-up: The cells were then isolated and subjected to immuno-precipitation of the IGF-1R; endogenous in cells; host or cells: FM55 melanoma cells; conditions: for Level of IGF-1R phosphorylation in intact cells: OD, control cells = 100%
IGF-1R, sequence (P08069 31-1367): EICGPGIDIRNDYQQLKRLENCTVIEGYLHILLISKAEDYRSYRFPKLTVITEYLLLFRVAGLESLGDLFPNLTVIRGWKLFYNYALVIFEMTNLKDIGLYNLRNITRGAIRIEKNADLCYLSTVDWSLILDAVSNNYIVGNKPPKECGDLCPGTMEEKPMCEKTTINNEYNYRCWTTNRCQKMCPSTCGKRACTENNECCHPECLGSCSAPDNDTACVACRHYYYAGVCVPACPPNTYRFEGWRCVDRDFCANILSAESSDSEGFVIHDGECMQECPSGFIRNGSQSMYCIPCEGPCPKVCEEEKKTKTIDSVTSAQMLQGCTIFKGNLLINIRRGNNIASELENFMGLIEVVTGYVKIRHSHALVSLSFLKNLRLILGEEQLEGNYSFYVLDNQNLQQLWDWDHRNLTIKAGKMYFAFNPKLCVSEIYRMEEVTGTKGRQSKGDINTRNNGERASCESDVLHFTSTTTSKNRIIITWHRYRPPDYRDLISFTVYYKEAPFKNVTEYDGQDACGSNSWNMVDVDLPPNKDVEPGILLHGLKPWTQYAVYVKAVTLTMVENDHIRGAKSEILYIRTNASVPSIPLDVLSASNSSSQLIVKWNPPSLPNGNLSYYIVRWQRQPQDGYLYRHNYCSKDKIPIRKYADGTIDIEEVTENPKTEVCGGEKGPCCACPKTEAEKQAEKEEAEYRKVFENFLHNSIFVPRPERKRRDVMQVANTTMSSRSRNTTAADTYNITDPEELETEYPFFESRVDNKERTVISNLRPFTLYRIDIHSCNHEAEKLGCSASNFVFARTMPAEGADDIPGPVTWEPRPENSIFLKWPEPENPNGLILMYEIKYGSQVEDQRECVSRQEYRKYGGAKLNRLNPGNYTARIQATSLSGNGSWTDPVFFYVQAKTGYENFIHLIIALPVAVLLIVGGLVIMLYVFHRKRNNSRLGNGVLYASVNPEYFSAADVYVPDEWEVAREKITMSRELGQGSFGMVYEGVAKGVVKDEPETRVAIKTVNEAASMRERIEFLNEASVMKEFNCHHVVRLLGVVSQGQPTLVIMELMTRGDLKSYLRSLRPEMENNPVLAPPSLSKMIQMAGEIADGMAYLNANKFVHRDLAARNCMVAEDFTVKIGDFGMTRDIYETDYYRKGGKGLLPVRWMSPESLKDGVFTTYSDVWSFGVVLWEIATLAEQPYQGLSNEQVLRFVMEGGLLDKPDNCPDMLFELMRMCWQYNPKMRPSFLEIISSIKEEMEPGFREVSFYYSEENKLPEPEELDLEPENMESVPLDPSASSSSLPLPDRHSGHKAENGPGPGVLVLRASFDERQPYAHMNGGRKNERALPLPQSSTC
Method: The isolated cells were lyzed in 10 ml ice-cold PBSTDS containing protease inhibitors (Carlberg, M., et al., J Biol Chem 271:17453-17462, 1996). 50 μl protein A or G agarose was added in 1 ml sample and incubated for 15 min at 4° C. on an orbital shaker. After centrifugation for 10 min at 10,000 r/min at 4° C. the supernatant was saved. The protein content was determined by a dye-binding assay with a reagent purchased from Bio-Rad. Bovine serum albumin was used as a standard. 15 μl Protein G Plus agarose and 5 μl anti-IGF-1R were added. After a 3 h incubation at 4° C. on an orbital shaker the precipitate was collected by pulse centrifugation in a micro centrifuge at 14,000×g for 10 s. The supernatant was discarded and the pellet was washed 3 times with PBSTDS.
Protein samples were solved in a 2×-sample buffer containing Laemmli buffer and 0.5% […] and boiled for 5 min at 96° C. Samples were separated by SDS-PAGE with a 4% stacking gel and 7.5% separation gel. Molecular weight markers (Bio Rad, Sweden) were run simultaneously in all experiments.
Following SDS-PAGE the proteins were transferred overnight to nitro-cellulose membranes (Hybond, Amersham, UK) and then blocked for 1 h at room temperature in a solution of 4% skimmed milk powder and 0.02% Tween 20 in PBS, pH 7.5. Incubations with the primary antibodies were performed for 1 h at room temperature, followed by 3 washes with PBS with Tween and incubation with the second antibody for 1 h room temperature. After another 3 washes the membranes were incubated with Streptavidin-labelled horseradish peroxidase for 30 min and then detected using Amersham ECL system (Amersham, UK) The films were scanned by Fluor-S (BioRad).
Melanoma cells (line FM55) were seeded in 6-cm dishes, at a concentration of 10,000 cells/cm^2 in Minimal Essential Medium supplemented with 10% fetal calf serum (FCS). […] Treatment with 0 μM represents untreated controls. The cells were then isolated and subjected to immuno-precipitation of the IGF-1R. The immunoprecipitates, containing purified IGF-1R, were fractionated by gel electrophoresis. Phosphorylation of IGF-1R was detected by an anti-phosphotyrosine antibody using Western blotting. The obtained signals represent phosphorylated IGF-1R and the intensity of signals represents amounts of phosphorylated IGF-1R. Details of the methods used are described above. The intensities are quantified by a scanner, which measures the optical density (OD) of the signals. For the control cells the OD is set at 100%. The blank (OD 0%) represents the background. The results given in Table 1 below are mean values of 3 experiments.
FM 55 melanoma cells were cultured in the same way as described in Experiment 1. When reaching a density of 65,000 cells/cm^2 in the dishes, they were treated for 1 h with 0.05 μM podophyllotoxin, deoxypodophyllotoxin, acetylpodophyllotoxin, epipodophyllotoxin, 4′-demethyl-podophyllotoxin and podophyllotoxone. The cells were then harvested for assay and quantification of IGF-1R autophosphorylation as described above. The values shown in Table 2 represent means of 3 experiments.

[3] = system: K562/Vcr30 chronic myeloid leukemia cells (cytostatic-resistant); experiment: Viability of leukemia cells, K562/Vcr30; type: cell-based, human; conditions: Homo sapiens; K562/Vcr30, 72 h; read-out: IC50 for viability of leukemia cell lines
Method: (§3) The human chronic myeloid leukemia K562/S and K562/Vcr30 lines and the acute myeloid leukemia cell lines HL60/0 and HL60/Nov were obtained from ATCC. The K562/S and HL60/0 are wild type (non-resistant) cells, whereas K562/Vcr30 and HL60/Nov are cytostatic-resistant sublines. All leukemia cell lines were cultured in RPMI 1640 medium supplemented with 10% fetal bovine serum and with 2 mM glutamine, 1% benzyl-penicillin and streptomycin. The cells were grown in tissue culture flasks maintained at 95% air/5% CO2 atmosphere at 37° C. in a humidified incubator. For the experiments 25,000 cells were cultured in 60-mm plastic dishes or 96-well plastic plates. The experiments on leukemia cells were performed in collaboration with Associate professor Sigurd Vitols, Department of Pharmacology, Karolinska Hospital (Stockholm, Sweden).
as §1
(§4) The leukemia cell lines K562/S, K562/Vcr 30, HL60/0 and HL60/Nov were proven to express the IGF-1R. This was assayed by Western blotting analysis, as described in Methods and Experiment 1 and 2. The 4 leukemia cell lines were seeded in 96-well plates (medium volume in a well was 100 μl), in RPMI40 medium supplemented with fetal calf serum. After 24 h podophyllotoxin, deoxypodophyllotoxin and other derivatives were added at different concentrations for 72 h. Cell viability was then assayed (see above). IC50 values for each inhibitor and cell lines are shown below (Table 5). The results are based on 3 different experiments.

[4] = system: K562/S chronic myeloid leukemia cells; experiment: Viability of leukemia cells, K562/S; type: cell-based, human; conditions: Homo sapiens, 72 h, read-out: IC50 for viability of leukemia cell lines
Method: as §3, §1, §4

[5] = system: cells devoid of insulin-like growth factor-1 receptors; experiment: Cell death in cells devoid of IGF-1R; type: cell-based
[6] = system: SK-MEL-28 melanoma cells; experiment: Cell viability (XTT), SK-MEL-28; type: cell-based, human; conditions: Homo sapiens, 48 h
Method: as §1, §2

In the case of `COc1cc([C@@H]2c3cc4c(cc3[C@H](O)[C@H]3COC(=O)[C@H]23)OCO4)cc(OC)c1OC` [Podophyllotoxin, podophyllotoxin], the IC50 [1] is reported as 70 nM, the “inhibition of IGF-1R phosphorylation (in words)” value ([2]; FM55 cells, 0.05 μM, 1 h) is reported as “potent inhibitors” and the “Inhibitory effect on IGF-1R autophosphorylation in intact cells in relation to podophyllotoxin, Relative potency” value ([2]; FM55 cells, 0.05 μM, 1 h, podophyllotoxin = 1, mean of 3) is reported as 1. For the same compound, the “Level of IGF-1R phosphorylation in intact cells” value (from here on “Level of IGF-1R phosphorylation”) ([2]; FM55 cells, 1 μM, 1 h, mean of 3) was 8%, the “Level of IGF-1R phosphorylation” value ([2]; FM55 cells, 15 μM, 1 h, mean of 3) was 4% and the “Level of IGF-1R phosphorylation” value ([2]; FM55 cells, 60 μM, 1 h, mean of 3) was 2%. For the same compound, the “effect on IGF-1R phosphorylation (in words)” value ([2]; FM55 cells, 1, 15, 60 μM, genistein statement at 60 μM) was “almost completely blocks”, the “concentration sufficient to inactivate the IGF-1R, fold lower than for the anti-microtubule effect” value ([2]; compared to anti-microtubule effect) was 100 fold and the IC50 [3] was 7 nM. The IC50 [4] was 4 nM, the “response of cells devoid of IGF-1R (in words)” value [5] was “resistant” and the IC50 [6] was 50 nM.
